# Data taken from article PMC2692545 (Biochemical pharmacology, 2009).
# Biological target: C1/C2 + Gsα (VC1:IIC2 plus Gsα-GTPγS) (Canis lupus familiaris; Rattus norvegicus; Bos taurus, UniProt P26769+P30803)
# Assay: […]cAMP formation from [α-32P]ATP, stimulation of catalysis
# Assay type: biochemical
# C1/C2 + Gsα (VC1:IIC2 plus Gsα-GTPγS), sequence (P30803 442-656): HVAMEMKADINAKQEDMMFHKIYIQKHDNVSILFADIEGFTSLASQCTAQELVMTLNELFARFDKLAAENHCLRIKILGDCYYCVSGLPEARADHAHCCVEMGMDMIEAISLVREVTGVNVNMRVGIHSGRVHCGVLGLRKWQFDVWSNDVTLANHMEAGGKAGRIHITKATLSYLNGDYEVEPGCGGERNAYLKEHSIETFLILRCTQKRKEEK
# C1/C2 + Gsα (VC1:IIC2 plus Gsα-GTPγS), sequence (P26769 870-1081): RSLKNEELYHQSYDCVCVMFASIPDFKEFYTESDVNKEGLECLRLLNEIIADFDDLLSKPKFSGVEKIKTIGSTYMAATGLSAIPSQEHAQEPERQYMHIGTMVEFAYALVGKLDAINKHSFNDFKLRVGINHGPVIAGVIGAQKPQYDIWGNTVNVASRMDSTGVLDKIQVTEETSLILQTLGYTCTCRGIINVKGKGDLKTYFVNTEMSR
# C1/C2 + Gsα (VC1:IIC2 plus Gsα-GTPγS), sequence (P04896 2-394 partner): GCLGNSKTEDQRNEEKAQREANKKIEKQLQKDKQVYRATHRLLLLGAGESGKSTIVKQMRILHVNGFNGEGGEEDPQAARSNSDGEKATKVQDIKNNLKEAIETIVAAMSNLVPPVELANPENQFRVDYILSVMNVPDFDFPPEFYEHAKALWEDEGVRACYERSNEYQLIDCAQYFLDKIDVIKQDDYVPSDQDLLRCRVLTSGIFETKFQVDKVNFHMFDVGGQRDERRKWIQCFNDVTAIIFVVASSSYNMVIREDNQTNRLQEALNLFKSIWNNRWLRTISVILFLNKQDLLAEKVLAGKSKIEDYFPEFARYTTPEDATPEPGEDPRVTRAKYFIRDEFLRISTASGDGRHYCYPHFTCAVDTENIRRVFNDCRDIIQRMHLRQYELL
row,EC50 [µM],SMILES
1,2.6 ± 1,C=C[C@@]1(C)CC(=O)[C@]2(O)[C@@]3(C)[C@@H](O)CCC(C)(C)[C@@H]3[C@H](OC(C)=O)[C@H](O)[C@@]2(C)O1 [6A7DA-FS]
2,19.5 ± 0.7,C=C[C@@]1(C)CC(=O)[C@H]2[C@](C)(O1)[C@@H](OC(C)=O)[C@@H](O)[C@H]1C(C)(C)CC[C@H](O)[C@@]12C [9d-FS]
3,27.6 ± 7,C=C[C@@]1(C)CC(=O)[C@]2(O)[C@@]3(C)[C@@H](O)CCC(C)(C)[C@@H]3[C@H](O)[C@H](OC(=O)CCCN3CCN(C)CC3)[C@@]2(C)O1 [DMB-FS]
4,7.4 ± 1.2,C=C[C@@]1(C)CC(=O)[C@]2(O)[C@@]3(C)[C@@H](O)CCC(C)(C)[C@@H]3[C@H](O)[C@H](OC(C)=O)[C@@]2(C)O1 [FS]
